The text below walks through data of patent US20240336566A1, “CRYSTALLINE FORMS OF A COMPOUND FOR THE TARGETED DEGRADATION OF THE ANDROGEN RECEPTOR” (Arvinas Operations, Inc., priority 2023, published 2024).

Where only a bound is given, the exact number is not on record here.

What all share (format): physicochemical
Series [1] is described as follows: Co-crystal screen: XRPD post temperature cycling and post storage at 40° C./75% RH.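 For XRPD results, primary co-crystal screen post temperature cycling: value is the Compound A free base XRPD pattern number and 9 means a potential new one.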 Conditions: for XRPD results, primary co-crystal screen post storage at 40° C./75% RH / XRPD results, primary co-crystal screen post temperature cycling: Compound A + 1.05 eq. co-former (= label); for XRPD form post storage at 40° C./75% RH: ca. 24 or ca. 30 hours.
Series [2] is described as follows: 7-day stability assessment (appearance, HPLC, XRPD). The following applies: for Reported Purity / Total impurities: HPLC. On the procedure:
The material was gently ground to release any agglomerates and loaded onto a multi-well plate with Kapton or Mylar polymer film to support the sample. […] Data were visualized and images generated using the HighScore Plus 4.7 desktop application (PANalytical, 2θ17).
They all remained white or off-white solids. • XRPD analysis determined the patterns were retained.

Series [3] in a line: Primary crystallization screen: XRPD before and after drying at 40° C. Conditions: dried at 40° C. for approximately 18 h. On the procedure:
• 34×40 mg of Compound A was weighed into vials before the selected solvents were added to prepare slurries, where possible. See Table 29 for a list of solvent systems used and the volume of solvent used. • Stirrer bars were added to the vials, before the vials were sealed and temperature cycled with stirring between 5° C. and 40° C. The heating rate was 0.1° C./min and the samples were held at 5° C. and 40° C. for 2 hours. • After temperature cycling for 4 days, observations were made (see Table 29). Slurries were centrifuge filtered and the solids were analyzed by XRPD • The solids were dried at 40° C. for approximately 18 h before being re-analyzed by XRPD. • Saturated solutions were then split into 3 vials for the following experiments • Evaporation at ambient temperature • Cooling (5° C.). • Where no solids were obtained after 72 hours, the samples were moved to the freezer at −20° C. for further cooling. • Where no solids were obtained from further cooling, the samples were allowed to evaporate at ambient temperature. • Anti-solvent addition at ambient temperature. • Where no solids were obtained after 72 hours the samples were moved to the freezer at −20° C. to encourage crystallization. • Where no solids were obtained from cooling, the samples were allowed to evaporate at ambient temperature.

Series [4] can be described thus: Primary salt screen: XRPD post temperature cycling/evaporation, post drying and post storage at 40° C./75% RH. The following applies: Compound A + 1.05 eq. counterion (= label); for XRPD results post drying: dried under vacuum at 40° C.; for XRPD results post 40° C./75% RH: stored ca. 20 hours. On the procedure: • 30 mg samples of Compound A were weighed out into 2 mL screw cap sample vials for 96 experiments. To these, 200 μL of the appropriate solvent system was added to dissolve the material or form a slurry. See Table 16 for the solvent systems selected for the primary salt screen.
• 1.05 eq. of solid counterions were weighed into six separate vials each and 1 molar stock solutions were prepared for liquid counterions in 5 mL of THF. See Table 17 for selected counterions and mass/volume needed for 1.05 eq. additions. • 100 μL of the appropriate solvent was added to the solid counterions.
The solution/slurry of counterion was added to the solution/slurry of the free base material.
• The samples were placed in an incubator shaker to temperature cycle between ambient and 40° C. over 4 hour cycles. • After ca. 72 hours of temperature cycling, observations were noted, see Table 19.
• Where slurries were obtained, the solids were isolated via centrifugation. Solids and gels were analyzed by XRPD.
Any samples that were clear solutions after temperature cycling were left to evaporate at ambient conditions. See Table 20 for observations made after evaporation. Solids obtained through evaporation were analyzed by XRPD.
• The samples obtained from temperature cycling were dried under vacuum at 40° C. for ca. 20 hours while the samples obtained from evaporation were dried under vacuum at 40° C. for ca. 4 hours. […]

[5] abbreviates: 7 days at 40° C./75% RH (open vial).
[6] abbreviates: 7 days at Ambient light (closed vial).
The mark [7] stands for this setting: input material before storage (baseline of the stability assessment).

For `N[C@@H](Cc1c[nH]cn1)C(=O)O` [L-Histidine], the “XRPD results, primary co-crystal screen post storage at 40° C./75% RH” value (“XRPD results … at 40° C./75% RH” for short) in series [1] (1,4-Dioxane) is reported as 4; in series [1] (DCM:Methanol (50:50 % v/v)), 2; in series [1] (THF), 1. The “XRPD results, primary co-crystal screen post temperature cycling” value came to 9 in series [1] (1,4-Dioxane), 2 in series [1] (DCM:Methanol (50:50 % v/v)) and 1 in series [1] (THF).
For the molecule `N[C@@H](Cc1ccccc1)C(=O)O` [L-Phenylalanine], in series [1] (1,4-Dioxane), the “XRPD results … at 40° C./75% RH” value is on record as 4 and the “XRPD results, primary co-crystal screen post temperature cycling” value is 9.
In the case of `O=C(O)[C@@H]1CCCN1` [L-Proline], the “XRPD results … at 40° C./75% RH” value was determined as 4 in series [1] (1,4-Dioxane), 2 in series [1] (DCM:Methanol (50:50 % v/v)) and 1 in series [1] (THF). In addition, the figures for the “XRPD results, primary co-crystal screen post temperature cycling” value in series [1] (1,4-Dioxane), in series [1] (DCM:Methanol (50:50 % v/v)) and in series [1] (THF) were 9, 2 and 1, respectively.
As for `N[C@@H](Cc1c[nH]c2ccccc12)C(=O)O` [L-Tryptophan], the “XRPD results, primary co-crystal screen post temperature cycling” value in series [1] (DCM:Methanol (50:50 % v/v)) worked out at 2.
Take `N[C@@H](Cc1ccc(O)cc1)C(=O)O` [L-Tyrosine]: in series [1] (1,4-Dioxane), the “XRPD results … at 40° C./75% RH” value is recorded as 4 and the “XRPD results, primary co-crystal screen post temperature cycling” value was found to be 9. Also, in series [1] (DCM:Methanol (50:50 % v/v)), the “XRPD results … at 40° C./75% RH” value was 2 and the “XRPD results, primary co-crystal screen post temperature cycling” value is reported as 2.
Take `COC(=O)c1ccc(O)cc1` [Methylparaben]: the “XRPD results … at 40° C./75% RH” value in series [1] (DCM:Methanol (50:50 % v/v)) and in series [1] (THF) was 1 throughout. Further, the “XRPD results, primary co-crystal screen post temperature cycling” value in series [1] (DCM:Methanol (50:50 % v/v)) and in series [1] (THF) was 1 throughout.
In the case of `NC(=O)c1cccnc1` [Nicotinamide], the “XRPD results … at 40° C./75% RH” value was found to be 4 in series [1] (1,4-Dioxane), 2 in series [1] (DCM:Methanol (50:50 % v/v)), 2 in series [1] (DMSO:Water (50:50 % v/v)) and 1 in series [1] (THF). In addition, the “XRPD results, primary co-crystal screen post temperature cycling” value in series [1] (1,4-Dioxane) is recorded as 4; in series [1] (DCM:Methanol (50:50 % v/v)) it was 2; in series [1] (DMSO:Water (50:50 % v/v)) it was 2; in series [1] (THF), 1.
For `NC(N)=O` [Urea], the “XRPD results … at 40° C./75% RH” value turned out to be 4 in series [1] (1,4-Dioxane), 2 in series [1] (DCM:Methanol (50:50 % v/v)) and 1 in series [1] (THF). Moreover, the “XRPD results, primary co-crystal screen post temperature cycling” value stood at 9 in series [1] (1,4-Dioxane), 2 in series [1] (DCM:Methanol (50:50 % v/v)) and 1 in series [1] (THF).
As to `COc1cc(O[C@H]2C(C)(C)[C@H](NC(=O)c3ccc(N4CCC(CN5CCN(c6ccc(C(=O)N[C@H]7CCC(=O)NC7=O)c(F)c6)CC5)CC4)cc3)C2(C)C)ccc1C#N` [free base Pattern 2], the HPLC purity in series [2] (setting [5]) was found to be 98.37 % relative area; in series [2] (7 days at 80° C. (closed vial)), 98.33 % relative area; in series [2] (setting [6]), 98.27 % relative area; in series [2] (before stability testing (condition N/A)) it was 98.39 % relative area. In addition, the “XRPD after stability storage” value in series [2] (setting [5]), in series [2] (7 days at 80° C. (closed vial)) and in series [2] (setting [6]) was “No change” in each case. Also, the “Reported Purity” value in series [2] (after 7 days at 40° C./75% RH) stood at 98.37 Area %; in series [2] (after 7 days at 80° C.) it was 98.33 Area %; in series [2] (after 7 days at ambient) it was 98.27 Area %; in series [2] (setting [7]), 98.39 Area %. Further, the Total impurities in series [2] (after 7 days at 40° C./75% RH) was determined as 1.63 Area %; in series [2] (after 7 days at 80° C.), 1.67 Area %; in series [2] (after 7 days at ambient), 1.73 Area %; in series [2] (setting [7]), 1.61 Area %. For the same molecule, the “purity retained after stability storage (HPLC)” value in series [2] (after 7 days at 40° C./75% RH (open vial), 80° C. (closed vial), ambient light (closed vial)) is over 98 % relative area.
Regarding `COc1cc(O[C@H]2C(C)(C)[C@H](NC(=O)c3ccc(N4CCC(CN5CCN(c6ccc(C(=O)N[C@H]7CCC(=O)NC7=O)c(F)c6)CC5)CC4)cc3)C2(C)C)ccc1C#N` [free base Pattern 5], in series [3], the “XRPD form upon drying” value is given as “converted to Pattern 8”.
`COc1cc(O[C@H]2C(C)(C)[C@H](NC(=O)c3ccc(N4CCC(CN5CCN(c6ccc(C(=O)N[C@H]7CCC(=O)NC7=O)c(F)c6)CC5)CC4)cc3)C2(C)C)ccc1C#N` [free base Pattern 9]: the “XRPD form post storage at 40° C./75% RH” value in series [1] is recorded as “converts to Pattern 4”; in series [1] (listed as Pattern 9), “converted to free base Pattern 4”.
`Cc1ccc(S(=O)(=O)O)cc1` [p-Toluenesulfonic acid]: the “XRPD results post temperature cycling and evaporation” value in series [4] (1,4-Dioxane) is on record as “A t”; in series [4] (DCM), “A e”; in series [4] (DCM:Methanol (50:50 % v/v)), “A e”; in series [4] (DMSO:Water (50:50 % v/v)), “A t”; in series [4] (THF), “S t”; in series [4] (THF:Water (98:2 % v/v)), “A e”. In addition, the “XRPD results post drying” value is recorded as “A t” in series [4] (1,4-Dioxane); “A e” in series [4] (DCM:Methanol (50:50 % v/v)); “A e” in series [4] (DCM); “A t” in series [4] (DMSO:Water (50:50 % v/v)); “A e” in series [4] (THF:Water (98:2 % v/v)). For the same molecule, the “XRPD results post 40° C./75% RH” value is recorded as “A t” in series [4] (1,4-Dioxane); “A e” in series [4] (DCM:Methanol (50:50 % v/v)); “A e” in series [4] (DCM); “A t” in series [4] (DMSO:Water (50:50 % v/v)); “A e” in series [4] (THF:Water (98:2 % v/v)).
